This passage reports IC50 results from the Kinase Knowledgebase extract (Sharma et al. 2016).

The assay concerns the target PIK3CG (human) (UniProt P48736). Put plainly: Assessment of PIK3CG Kinase Activity.

Chain of PIK3CG (human) (P48736 whole entry, looked up): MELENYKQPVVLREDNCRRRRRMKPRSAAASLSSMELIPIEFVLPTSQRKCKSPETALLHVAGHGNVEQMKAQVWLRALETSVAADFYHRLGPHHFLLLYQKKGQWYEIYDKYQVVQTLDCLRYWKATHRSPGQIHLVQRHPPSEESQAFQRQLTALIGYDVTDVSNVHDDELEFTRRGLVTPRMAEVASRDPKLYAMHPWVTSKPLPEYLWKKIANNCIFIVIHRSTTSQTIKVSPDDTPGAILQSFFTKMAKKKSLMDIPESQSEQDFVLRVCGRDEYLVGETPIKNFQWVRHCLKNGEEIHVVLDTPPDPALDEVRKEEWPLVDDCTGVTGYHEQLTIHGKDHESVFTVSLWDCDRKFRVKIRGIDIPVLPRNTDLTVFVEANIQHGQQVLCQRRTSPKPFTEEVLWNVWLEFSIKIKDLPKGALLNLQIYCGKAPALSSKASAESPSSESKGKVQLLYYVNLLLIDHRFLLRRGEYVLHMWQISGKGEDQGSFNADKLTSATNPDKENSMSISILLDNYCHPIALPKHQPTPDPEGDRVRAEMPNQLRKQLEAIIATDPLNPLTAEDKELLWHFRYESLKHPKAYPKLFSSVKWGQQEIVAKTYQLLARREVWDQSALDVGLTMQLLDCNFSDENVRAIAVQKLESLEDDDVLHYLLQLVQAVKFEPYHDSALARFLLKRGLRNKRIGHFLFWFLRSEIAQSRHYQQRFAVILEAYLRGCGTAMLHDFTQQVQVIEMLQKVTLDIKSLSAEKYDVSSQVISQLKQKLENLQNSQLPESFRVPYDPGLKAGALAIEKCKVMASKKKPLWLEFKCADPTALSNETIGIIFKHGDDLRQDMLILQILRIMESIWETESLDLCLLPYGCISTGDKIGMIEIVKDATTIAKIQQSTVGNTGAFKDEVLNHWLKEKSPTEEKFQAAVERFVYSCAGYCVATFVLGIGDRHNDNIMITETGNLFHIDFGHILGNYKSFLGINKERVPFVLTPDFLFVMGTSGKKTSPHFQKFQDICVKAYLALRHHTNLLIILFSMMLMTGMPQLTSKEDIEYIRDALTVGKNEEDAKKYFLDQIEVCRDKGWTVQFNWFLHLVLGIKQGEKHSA

On to `CC(C)N1CC(=O)N(C)c2cnc(Nc3cc(NC(=O)NC[C@@H]4CCCN4)cc(S(C)(=O)=O)c3)nc21`, for which the IC50 was < 800 nM.

Take `CC(C)N1CC(=O)N(C)c2cnc(Nc3cc(NS(C)(=O)=O)cc(C(=O)NCCN(C)C)c3)nc21`: the IC50 was < 800 nM.

In the case of `CC(C)N1CC(=O)N(C)c2cnc(Nc3cc(NC(=O)C[C@@H]4CCN(C5CCCC5)C4)cc(S(C)(=O)=O)c3)nc21`, the IC50 is < 800 nM.

On to `CC(C)N1CC(=O)N(C)c2cnc(Nc3cc(N(C)C(=O)N[C@@H](C)c4ccccc4)cc(S(C)(=O)=O)c3)nc21`, for which the IC50 is < 800 nM.

As to `CNCCS(=O)(=O)c1cccc(Nc2ncc3c(n2)N(C(C)C)CC(=O)N3C)c1`, the half-maximal inhibitory concentration (IC50) was < 800 nM.

Take `CC(C)N1CC(=O)N(C)c2cnc(Nc3cc(NC(=O)Cc4cccnc4)cc(S(C)(=O)=O)c3)nc21`: the IC50 is < 800 nM.

Turning to `CC(C)N1CC(=O)N(C)c2cnc(Nc3cc(C(F)(F)F)cc(S(C)(=O)=O)c3)nc21`, the IC50 is < 800 nM.

As to `CC(C)N1CC(=O)N(C)c2cnc(Nc3cc(NC(=O)NC[C@H]4CCCN4c4ccncc4)cc(S(C)(=O)=O)c3)nc21`, the IC50 was < 800 nM.

With `CC(C)N1CC(=O)N(C)c2cnc(Nc3cc(NC(=O)N[C@H]4CCN(C5CCOCC5)C4)cc(S(C)(=O)=O)c3)nc21`, the IC50 was < 800 nM.

In the case of `CC(C)N1CC(=O)N(C)c2cnc(Nc3cc(NC(=O)C[C@H]4CCNC4)cc(S(C)(=O)=O)c3)nc21`, the 50% inhibitory concentration (IC50) was < 800 nM.

With `CC(C)N1CC(=O)N(C)c2cnc(Nc3cc(NC(=O)C4CCCCN4)cc(S(C)(=O)=O)c3)nc21` (stereo not drawn), the IC50 is < 800 nM.

On to `CC(C)N1CC(=O)N(C)c2cnc(Nc3cc(NC(=O)N[C@@H]4CCN(C5CCCC5)C4)cc(S(N)(=O)=O)c3)nc21`, for which the 50% inhibitory concentration (IC50) is < 800 nM.

On to `CC(C)N1CC(=O)N(C)c2cnc(Nc3cc(NC(=O)N[C@H]4CC[C@@H](N)CC4)cc(S(C)(=O)=O)c3)nc21`, for which the 50% inhibitory concentration (IC50) was < 800 nM.

Take `CC(C)N1CC(=O)N(C)c2cnc(Nc3cc(NC(=O)Cc4noc5ccccc45)cc(S(C)(=O)=O)c3)nc21`: the IC50 is < 800 nM.

As for `CC(C)N1CC(=O)N(C)c2cnc(Nc3cc(NC4CCC(N)CC4)cc(S(C)(=O)=O)c3)nc21` (stereo not drawn), the IC50 is < 800 nM.

Consider `CNC(=O)c1cc(Nc2ncc3c(n2)N(C(C)C)CC(=O)N3C)cc(S(C)(=O)=O)c1`, for which the IC50 was < 800 nM.

For the molecule `CC(C)N1CC(=O)N(C)c2cnc(Nc3cc(NC(=O)O[C@@H]4CCN(C5CCCC5)C4)cc(S(C)(=O)=O)c3)nc21`, the IC50 is < 800 nM.

Take `CC(C)N1CC(=O)N(C)c2cnc(Nc3cc(C(=O)NCCN4CCNC4=O)cc(S(C)(=O)=O)c3)nc21`: the 50% inhibitory concentration (IC50) is < 800 nM.

With `CC(C)N1CC(=O)N(C)c2cnc(Nc3cc(NC(=O)N(C)C[C@H]4CCCN4C4CCCC4)cc(S(C)(=O)=O)c3)nc21`, the IC50 is < 800 nM.

In the case of `CC(C)N1CC(=O)N(C)c2cnc(Nc3cc(NC(=O)N(C)Cc4ccncc4)cc(S(C)(=O)=O)c3)nc21`, the IC50 is < 800 nM.

As for `CC(C)N1CC(=O)N(C)c2cnc(Nc3cc(NC(=O)NC4CCN(C)CC4)cc(S(C)(=O)=O)c3)nc21`, the IC50 was < 800 nM.

On to `CCc1cnc(CCNC(=O)Nc2cc(Nc3ncc4c(n3)N(C(C)C)CC(=O)N4C)cc(S(C)(=O)=O)c2)o1`, for which the IC50 was < 800 nM.

Regarding `CC(C)N1CC(=O)N(C)c2cnc(Nc3cccc(S(=O)(=O)CCN4CCOCC4)c3)nc21`, the IC50 was < 800 nM.

For `CC(C)N1CC(=O)N(C)c2cnc(Nc3cc(NC(=O)[C@@H]4CCN(C5CCCC5)C4)cc(S(C)(=O)=O)c3)nc21`, the IC50 is < 800 nM.

Take `Cc1c[nH]c(CCNC(=O)c2cc(Nc3ncc4c(n3)N(C(C)C)CC(=O)N4C)cc(NS(C)(=O)=O)c2)n1`: the IC50 was < 800 nM.

Take `CC(C)N1CC(=O)N(C)c2cnc(Nc3cc(NC(=O)[C@H](N)c4ccccc4)cc(S(C)(=O)=O)c3)nc21`: the IC50 is < 800 nM.

Turning to `CC(C)N1CC(=O)N(C)c2cnc(Nc3cc(N(C)C(=O)Cc4ccsc4)cc(S(C)(=O)=O)c3)nc21`, the IC50 is < 800 nM.

Take `CC(C)N1CC(=O)N(C)c2cnc(Nc3cc(-c4cc(C5CC5)[nH]n4)cc(S(C)(=O)=O)c3)nc21`: the IC50 was < 800 nM.

As to `CC(C)N1CC(=O)N(C)c2cnc(Nc3cc(NS(C)(=O)=O)cc(C(F)(F)F)c3)nc21`, the IC50 was < 800 nM.

In the case of `CC(C)CCC(=O)Nc1cc(Nc2ncc3c(n2)N(C(C)C)CC(=O)N3C)cc(S(C)(=O)=O)c1`, the IC50 was < 800 nM.

On to `CC(C)N1CC(=O)N(C)c2cnc(Nc3cc(Br)cc(S(C)(=O)=O)c3)nc21`, for which the IC50 was < 800 nM.

For the molecule `CC(C)N1CC(=O)N(C)c2cnc(Nc3cc(NC(=O)[C@@H](C)c4ccccc4)cc(S(C)(=O)=O)c3)nc21`, the IC50 was < 800 nM.

Take `CC(C)N1CC(=O)N(C)c2cnc(Nc3cc(NC(=O)c4ccsc4)cc(S(C)(=O)=O)c3)nc21`: the IC50 is < 800 nM.

`CNS(=O)(=O)c1cccc(Nc2ncc3c(n2)N(C(C)C)CC(=O)N3C)c1`: the IC50 is < 800 nM.

Turning to `CC(C)N1CC(=O)N(C)c2cnc(Nc3cc(Nc4ccc(CN5CCN(C)CC5)cc4)cc(S(C)(=O)=O)c3)nc21`, the IC50 is < 800 nM.

For `CC(C)N1CC(=O)N(C)c2cnc(Nc3cc(NC(=O)NCC4CC4)cc(S(C)(=O)=O)c3)nc21`, the IC50 was < 800 nM.

For `CC(C)N1CC(=O)N(C)c2cnc(Nc3cc(NC(=O)C4CNCCO4)cc(S(C)(=O)=O)c3)nc21` (stereo not drawn), the IC50 was < 800 nM.

For the molecule `COc1cc(Nc2ncc3c(n2)N(C(C)C)CC(=O)N3C)cc(S(C)(=O)=O)c1`, the IC50 was < 800 nM.

For `CC(C)N1CC(=O)N(C)c2cnc(Nc3cc(N(C)C(=O)N[C@H]4CCN(Cc5ccccc5)C4)cc(S(C)(=O)=O)c3)nc21`, the IC50 was < 800 nM.

Consider `CC(C)N1CC(=O)N(C)c2cnc(Nc3cc(CS(C)(=O)=O)cc(C(F)(F)F)c3)nc21`, for which the IC50 was < 800 nM.

Turning to `Cc1cccc(CC(=O)Nc2cc(Nc3ncc4c(n3)N(C(C)C)CC(=O)N4C)cc(S(C)(=O)=O)c2)c1`, the IC50 is < 800 nM.

Regarding `CC(C)N1CC(=O)N(C)c2cnc(Nc3cc(C(=O)NCCCN(C)C)cc(S(C)(=O)=O)c3)nc21`, the IC50 is < 800 nM.

As for `CC(C)N1CC(=O)N(C)c2cnc(Nc3cc(NC(=O)[C@H]4CCCN(C5CCCC5)C4)cc(S(C)(=O)=O)c3)nc21`, the 50% inhibitory concentration (IC50) was < 800 nM.

Turning to `CC(C)N1CC(=O)N(C)c2cnc(Nc3cc(NC(=O)NCc4cc(C5CC5)[nH]n4)cc(S(C)(=O)=O)c3)nc21`, the half-inhibitory concentration (IC50) is < 800 nM.

For `CC(C)N1CC(=O)N(C)c2cnc(Nc3cc(NC(=O)N[C@H]4CCN(C5CCCC5)C4)cc(S(C)(=O)=O)c3)nc21`, the IC50 was < 800 nM.

Regarding `CC(C)N1CC(=O)N(C)c2cnc(Nc3cccc(S(=O)(=O)CCN4CCN(C)CC4)c3)nc21`, the 50% inhibitory concentration (IC50) is < 800 nM.

As to `CC(C)N1CC(=O)N(C)c2cnc(Nc3cc(NC(=O)Cc4ccccc4)cc(S(C)(=O)=O)c3)nc21`, the IC50 is < 800 nM.

Turning to `CC(C)N1CC(=O)N(C)c2cnc(Nc3cc(N(C)C(=O)NCc4ccccc4)cc(S(C)(=O)=O)c3)nc21`, the concentration for half-maximal inhibition (IC50) was < 800 nM.

Regarding `CC(C)N1CC(=O)N(C)c2cnc(Nc3cccc(S(=O)(=O)CCN(C)C)c3)nc21`, the IC50 was < 800 nM.

Turning to `CC(C)N1CC(=O)N(C)c2cnc(Nc3cc(N(C)C(=O)Cc4ccccc4)cc(S(C)(=O)=O)c3)nc21`, the concentration for half-maximal inhibition (IC50) was < 800 nM.

With `CCN1CCCC1CNC(=O)c1cc(Nc2ncc3c(n2)N(C(C)C)CC(=O)N3C)cc(NS(C)(=O)=O)c1` (stereo not drawn), the IC50 is < 800 nM.

Consider `CC(C)N1CC(=O)N(C)c2cnc(Nc3cc(NC(=O)[C@H](C)C4CCCCC4)cc(S(C)(=O)=O)c3)nc21`, for which the IC50 was < 800 nM.

On to `CNC(=O)c1cc(Nc2ncc3c(n2)N(C(C)C)CC(=O)N3C)cc(C(F)(F)F)c1`, for which the IC50 was < 800 nM.

Regarding `CC(C)N1CC(=O)N(C)c2cnc(Nc3cc(NC(=O)NCCN4CCNC4=O)cc(S(C)(=O)=O)c3)nc21`, the IC50 is < 800 nM.

Regarding `CC(C)N1CC(=O)N(C)c2cnc(Nc3cc(N4CCNC4=O)cc(S(C)(=O)=O)c3)nc21`, the IC50 is < 800 nM.

`CC(C)N1CC(=O)N(C)c2cnc(Nc3cc(C(=O)N(C)Cc4ccncc4)cc(S(C)(=O)=O)c3)nc21`: the IC50 is < 800 nM.

`CC(C)N1CC(=O)N(C)c2cnc(Nc3cc(NC(=O)NC[C@H]4CCCN4C4CCCC4)cc(S(C)(=O)=O)c3)nc21`: the IC50 was < 800 nM.

In the case of `CC(C)N1CC(=O)N(C)c2cnc(Nc3cc(NC(=O)[C@@H]4CCCN4C4CCCC4)cc(S(C)(=O)=O)c3)nc21`, the IC50 was < 800 nM.

For the molecule `CC(C)N1CC(=O)N(C)c2cnc(Nc3cc(Cl)cc(S(C)(=O)=O)c3)nc21`, the IC50 was < 800 nM.

Take `CC(C)N1CC(=O)N(C)c2cnc(Nc3cc(NS(=O)(=O)c4cccnc4)cc(S(C)(=O)=O)c3)nc21`: the IC50 is < 800 nM.

For the molecule `CC(C)N1CC(=O)N(C)c2cnc(Nc3cc(NC(=O)O[C@H]4CCN(C5CCCC5)C4)cc(S(C)(=O)=O)c3)nc21`, the IC50 is < 800 nM.

Consider `CC(C)N1CC(=O)N(C)c2cnc(Nc3cc(NC(=O)c4cccc(C#N)c4)cc(S(C)(=O)=O)c3)nc21`, for which the IC50 is < 800 nM.

In the case of `CC(C)N1CC(=O)N(C)c2cnc(Nc3cc(NC(=O)NC[C@@H]4CCNC4)cc(S(C)(=O)=O)c3)nc21`, the IC50 is < 800 nM.

With `Cc1cc(CC(=O)N(C)c2cc(Nc3ncc4c(n3)N(C(C)C)CC(=O)N4C)cc(S(C)(=O)=O)c2)on1`, the IC50 is < 800 nM.

Regarding `CC(C)N1CC(=O)N(C)c2cnc(Nc3cc(C(=O)NCCN(C)C)cc(S(C)(=O)=O)c3)nc21`, the IC50 is < 800 nM.

Take `Cc1cc(CC(=O)Nc2cc(Nc3ncc4c(n3)N(C(C)C)CC(=O)N4C)cc(S(C)(=O)=O)c2)on1`: the IC50 was < 800 nM.

For `CC(C)N1CC(=O)N(C)c2cnc(Nc3cc(NC(=O)NCc4ccccc4)cc(S(C)(=O)=O)c3)nc21`, the IC50 was < 800 nM.

`CC(C)N1CC(=O)N(C)c2cnc(Nc3cc(C(=O)NCCC4CCCN4C)cc(C(F)(F)F)c3)nc21` (stereo not drawn): the IC50 was < 800 nM.

With `CC(C)N1CC(=O)N(C)c2cnc(Nc3cc(NC(=O)[C@@H]4CCCN(C5CCCC5)C4)cc(S(C)(=O)=O)c3)nc21`, the IC50 is < 800 nM.

For the molecule `CC(C)N1CC(=O)N(C)c2cnc(Nc3cc(NS(=O)(=O)c4ccc(F)cc4)cc(S(N)(=O)=O)c3)nc21`, the IC50 was < 800 nM.

For `CC(C)N1CC(=O)N(C)c2cnc(Nc3cc(C(=O)NC4CCN(C)C4)cc(S(C)(=O)=O)c3)nc21` (stereo not drawn), the half-inhibitory concentration (IC50) is < 800 nM.

For `CC(C)N1CC(=O)N(C)c2cnc(Nc3cc(N(C)C(=O)Cc4cccc(Cl)c4)cc(S(C)(=O)=O)c3)nc21`, the IC50 was < 800 nM.

For `CCN1CCCC1CNC(=O)c1cc(Nc2ncc3c(n2)N(C(C)C)CC(=O)N3C)cc(S(C)(=O)=O)c1` (stereo not drawn), the IC50 was < 800 nM.
